# Measurements: patent US20260355196A1, “INHIBITORS AND DEGRADERS OF PIP4K PROTEIN” (Larkspur Biosciences, Inc., priority 2023, published 2026)
# Target: T1, PIP4K2C (Homo sapiens, UniProt Q8TBX8)
# T1 sequence (Q8TBX8 1-421): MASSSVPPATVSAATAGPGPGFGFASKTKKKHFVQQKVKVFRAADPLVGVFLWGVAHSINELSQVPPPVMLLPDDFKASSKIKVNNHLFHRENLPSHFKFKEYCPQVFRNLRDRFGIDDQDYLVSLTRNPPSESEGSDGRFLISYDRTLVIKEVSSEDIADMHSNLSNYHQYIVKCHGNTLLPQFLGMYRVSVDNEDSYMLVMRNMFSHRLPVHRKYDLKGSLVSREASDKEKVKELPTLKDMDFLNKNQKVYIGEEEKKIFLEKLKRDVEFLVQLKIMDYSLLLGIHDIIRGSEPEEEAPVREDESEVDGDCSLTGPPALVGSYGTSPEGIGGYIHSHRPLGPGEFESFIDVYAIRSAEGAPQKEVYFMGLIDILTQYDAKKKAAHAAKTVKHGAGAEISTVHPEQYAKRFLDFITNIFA
# Assay: HiBiT PIP4K2C degradation assay in MOLT-4 cells (endogenous PIP4K2C C-terminally tagged with HiBiT)
# Assay type: cell-based
# Set-up: untagged in primary human PBMCs and monocyte-derived dendritic cells
# Details: 24 hours incubation, MOLT-4, top concentration 10 micromolar; read-out: HiBIT-degradation MOLT4 PIP4k2C 24 hours DC50
# How it was run: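 Luminescent HiBiT lytic readout of residual PIP4K2C-HiBiT (CRISPR knock-in, MOLT-4, phenol red-free RPMI-1640 + 10% FBS). Cells exposed 6 or 24 h at 37 C to compound, top 10 micromolar, 3-fold, 10 points, duplicate. Hill fit (Levenberg-Marquardt) gives DC50.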
smiles,measurement,value
"O=C1CCC(Nc2ccc(C3CCN(CC4CCN(CC(=O)N5CCC(Nc6ncc(Cl)c(-c7cccc(-c8ccccc8)c7)n6)CC5)CC4)CC3)cc2)C(=O)N1 (stereo not shown) [Compound 53, 3-((4-(1-((1-(2-(4-((4-([1,1′-biphenyl]-3-yl)-5-chloropyrimidin-2-yl)amino)piperidin-1-yl)-2-oxoethyl)piperidin-4-yl)methyl)piperidin-4-yl)phenyl)amino)piperidine-2,6-dione]",DC50,500 to 1000 nM
"O=C1CCC(N2Cc3cc(C4CCN(C(=O)CN5CCC(C(=O)N6CCC(Nc7ncc(Cl)c(-c8cccc(-c9ccccc9)c8)n7)CC6)CC5)CC4)ccc3C2=O)C(=O)N1 (stereo not shown) [Compound 56, 3-(5-(1-(2-(4-(4-((4-([1,1′-biphenyl]-3-yl)-5-chloropyrimidin-2-yl)amino)piperidine-1-carbonyl)piperidin-1-yl)acetyl)piperidin-4-yl)-1-oxoisoindolin-2-yl)piperidine-2,6-dione]",DC50,< 500 nM
"O=C(COc1cccc2c1C(=O)N(C1CCC(=O)NC1=O)C2=O)NCCCCCCCCCC(=O)N1CCC(Nc2ncc(Cl)c(-c3cccc(-c4ccccc4)c3)n2)CC1 (stereo not shown) [Compound 66, N-(10-(4-((4-([1,1′-biphenyl]-3-yl)-5-chloropyrimidin-2-yl)amino)piperidin-1-yl)-10-oxodecyl)-2-((2-(2,6-dioxopiperidin-3-yl)-1,3-dioxoisoindolin-4-yl)oxy)acetamide]",DC50,500 to 1000 nM
"O=C(COc1ccc2c(c1)CN(C1CCC(=O)NC1=O)C2=O)NCCC(=O)N1CCC(C(=O)N2CCC(Nc3ncc(Cl)c(-c4cccc(-c5ccccc5)c4)n3)CC2)CC1 (stereo not shown) [Compound 67, N-(3-(4-(4-((4-([1,1′-biphenyl]-3-yl)-5-chloropyrimidin-2-yl)amino)piperidine-1-carbonyl)piperidin-1-yl)-3-oxopropyl)-2-((2-(2,6-dioxopiperidin-3-yl)-1-oxoisoindolin-5-yl)oxy)acetamide]",DC50,< 500 nM
"O=C(COc1ccc2c(c1)CN(C1CCC(=O)NC1=O)C2=O)NCCCC(=O)N1CCC(C(=O)N2CCC(Nc3ncc(Cl)c(-c4cccc(-c5ccccc5)c4)n3)CC2)CC1 (stereo not shown) [Compound 68, N-(4-(4-(4-((4-([1,1′-biphenyl]-3-yl)-5-chloropyrimidin-2-yl)amino)piperidine-1-carbonyl)piperidin-1-yl)-4-oxobutyl)-2-((2-(2,6-dioxopiperidin-3-yl)-1-oxoisoindolin-5-yl)oxy)acetamide]",DC50,< 500 nM
"O=C(COc1cccc2c1CN(C1CCC(=O)NC1=O)C2=O)NCCCCC(=O)N1CCC(C(=O)N2CCC(Nc3ncc(Cl)c(-c4cccc(-c5ccccc5)c4)n3)CC2)CC1 (stereo not shown) [Compound 69, N-(5-(4-(4-((4-([1,1′-biphenyl]-3-yl)-5-chloropyrimidin-2-yl)amino)piperidine-1-carbonyl)piperidin-1-yl)-5-oxopentyl)-2-((2-(2,6-dioxopiperidin-3-yl)-1-oxoisoindolin-4-yl)oxy)acetamide]",DC50,< 500 nM
"O=C1CCC(N2Cc3cc(C4CCN(C5CCN(CC(=O)N6CCC[C@H](Nc7ncc(Cl)c(-c8cccc(-c9ccccc9)c8)n7)C6)CC5)CC4)ccc3C2=O)C(=O)N1 (stereo partly drawn) [Compound 70, 3-(5-(1′-(2-((S)-3-((4-([1,1′-biphenyl]-3-yl)-5-chloropyrimidin-2-yl)amino)piperidin-1-yl)-2-oxoethyl)-[1,4′-bipiperidin]-4-yl)-1-oxoisoindolin-2-yl)piperidine-2,6-dione]",DC50,< 500 nM
"O=C1CCC(N2Cc3cc(C4CCN(C5CCN(CC(=O)N6CCC(Nc7ncc(Cl)c(-c8cccc(-c9ccccc9)c8)n7)CC6)CC5)CC4)ccc3C2=O)C(=O)N1 (stereo not shown) [Compound 71, 3-(5-(1′-(2-(4-((4-([1,1′-biphenyl]-3-yl)-5-chloropyrimidin-2-yl)amino)piperidin-1-yl)-2-oxoethyl)-[1,4′-bipiperidin]-4-yl)-1-oxoisoindolin-2-yl)piperidine-2,6-dione]",DC50,< 500 nM
"Cn1c(=O)n(C2CCC(=O)NC2=O)c2ccc(C3CCN(C4CCN(CC(=O)N5CCC(Nc6ncc(Cl)c(-c7cccc(-c8ccccc8)c7)n6)CC5)CC4)CC3)cc21 (stereo not shown) [Compound 72, 3-(5-(1′-(2-(4-((4-([1,1′-biphenyl]-3-yl)-5-chloropyrimidin-2-yl)amino)piperidin-1-yl)-2-oxoethyl)-[1,4′-bipiperidin]-4-yl)-3-methyl-2-oxo-2,3-dihydro-1H-benzo[d]imidazol-1-yl)piperidine-2,6-dione]",DC50,< 500 nM
"Cn1c(=O)n(C2CCC(=O)NC2=O)c2ccc(C3CCN(CC4CCN(CC(=O)N5CCC[C@H](Nc6ncc(Cl)c(-c7cccc(-c8ccccc8)c7)n6)C5)CC4)CC3)cc21 (stereo partly drawn) [Compound 73, 3-(5-(1-((1-(2-((S)-3-((4-([1,1′-biphenyl]-3-yl)-5-chloropyrimidin-2-yl)amino)piperidin-1-yl)-2-oxoethyl)piperidin-4-yl)methyl)piperidin-4-yl)-3-methyl-2-oxo-2,3-dihydro-1H-benzo[d]imidazol-1-yl)piperidine-2,6-dione]",DC50,< 500 nM
"O=C1CCC(Nc2ccc(C3CCN(CCN4CCC(C(=O)N5CCC(Nc6ncc(Cl)c(-c7cccc(-c8ccccc8)c7)n6)CC5)CC4)CC3)cc2)C(=O)N1 (stereo not shown) [Compound 74, 3-((4-(1-(2-(4-(4-((4-([1,1′-biphenyl]-3-yl)-5-chloropyrimidin-2-yl)amino)piperidine-1-carbonyl)piperidin-1-yl)ethyl)piperidin-4-yl)phenyl)amino)piperidine-2,6-dione]",DC50,< 500 nM
"Cn1c(=O)n(C2CCC(=O)NC2=O)c2ccc(C3CCN(C4CCN(CC(=O)N5CCC[C@H](Nc6ncc(Cl)c(-c7cccc(-c8ccccc8)c7)n6)C5)CC4)CC3)cc21 (stereo partly drawn) [Compound 75, 3-(5-(1′-(2-((S)-3-((4-([1,1′-biphenyl]-3-yl)-5-chloropyrimidin-2-yl)amino)piperidin-1-yl)-2-oxoethyl)-[1,4′-bipiperidin]-4-yl)-3-methyl-2-oxo-2,3-dihydro-1H-benzo[d]imidazol-1-yl)piperidine-2,6-dione]",DC50,< 500 nM
O=C1CCC(N2Cc3cc(C4CCN(CCN5CCC(C(=O)N6CCC[C@H](Nc7ncc(Cl)c(-c8cccc(-c9ccccc9)c8)n7)C6)CC5)CC4)ccc3C2=O)C(=O)N1 (stereo partly shown) [Compound 78],DC50,< 500 nM
"O=C1CCC(N2Cc3cc(OC4CCN(C(=O)CN5CCC(C(=O)N6CCC(Nc7ncc(Cl)c(-c8cccc(-c9ccccc9)c8)n7)CC6)CC5)CC4)ccc3C2=O)C(=O)N1 (stereo not shown) [Compound 83, 3-(5-((1-(2-(4-(4-((4-([1,1′-biphenyl]-3-yl)-5-chloropyrimidin-2-yl)amino)piperidine-1-carbonyl)piperidin-1-yl)acetyl)piperidin-4-yl)oxy)-1-oxoisoindolin-2-yl)piperidine-2,6-dione]",DC50,< 500 nM
"O=C1CCC(Nc2ccc(N3CCC(N4CCN(CCC(=O)N5CCC(Nc6ncc(Cl)c(-c7cccc(-c8ccccc8)c7)n6)CC5)CC4)CC3)cc2)C(=O)N1 (stereo not shown) [Compound 84, 3-((4-(4-(4-(3-(4-((4-([1,1′-biphenyl]-3-yl)-5-chloropyrimidin-2-yl)amino)piperidin-1-yl)-3-oxopropyl)piperazin-1-yl)piperidin-1-yl)phenyl)amino)piperidine-2,6-dione]",DC50,< 500 nM
"O=C1CCC(N2Cc3cc(OC4CCN(CC5CCN(CC(=O)N6CCC(Nc7ncc(Cl)c(-c8cccc(-c9ccccc9)c8)n7)CC6)CC5)CC4)ccc3C2=O)C(=O)N1 (stereo not shown) [Compound 85, 3-(5-((1-((1-(2-(4-((4-([1,1′-biphenyl]-3-yl)-5-chloropyrimidin-2-yl)amino)piperidin-1-yl)-2-oxoethyl)piperidin-4-yl)methyl)piperidin-4-yl)oxy)-1-oxoisoindolin-2-yl)piperidine-2,6-dione]",DC50,< 500 nM
